Structures are written as SMILES. Like-named read-outs stand apart in the source and are kept apart here. Where only a bound is given, the exact number is not on record here.

The target in series [1] is T1, CYP1A2 (Homo sapiens, UniProt P05177).
T1 construct: purchased Cypex; host or cells: bactosomes (bacterial membranes)
T1 sequence (P05177 1-516): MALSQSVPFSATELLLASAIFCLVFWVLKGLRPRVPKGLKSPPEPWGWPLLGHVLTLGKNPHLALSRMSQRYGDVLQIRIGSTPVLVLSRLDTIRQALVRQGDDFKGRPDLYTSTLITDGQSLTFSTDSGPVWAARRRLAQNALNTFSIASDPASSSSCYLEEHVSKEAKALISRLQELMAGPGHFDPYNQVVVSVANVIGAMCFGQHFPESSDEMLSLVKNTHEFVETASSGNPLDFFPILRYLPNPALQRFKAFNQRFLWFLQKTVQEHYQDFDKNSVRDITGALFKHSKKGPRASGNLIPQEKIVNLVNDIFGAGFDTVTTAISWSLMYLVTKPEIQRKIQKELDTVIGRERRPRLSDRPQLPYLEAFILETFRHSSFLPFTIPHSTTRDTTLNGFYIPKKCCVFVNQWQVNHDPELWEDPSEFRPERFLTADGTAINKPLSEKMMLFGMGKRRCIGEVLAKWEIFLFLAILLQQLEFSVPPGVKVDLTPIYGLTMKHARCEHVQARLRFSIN
Put plainly: Cytochrome p450 inhibition assay (bactosomes, fluorogenic substrate ER). In kind it is biochemical. The following applies: recombinant human CYP (Cypex bactosomes). As to the method:
(§1) The assay was designed to evaluate inhibition on cytochrome P450 (CYP) 3A4, 2C9, 2C19, 1A2 and 2D6 enzymes from bactosomes source using fluorogenic substrates. Compound (compound of Formula (I) or Comparator Compound) was dissolved in methanol at 1.65 mM. Daughter solutions were prepared in methanol at 660, 264, 106, 42, 17, 6.8, 2.7, 1.1 and 0.43 μM. NADPH cofactor was prepared with Glucose-6-phosphate (7.8 mg), Glucose-6-phosphate dehydrogenase (6 units), NADP (1.7 mg) per 1 mL in NaHCO3 2%. Substrate preparation was as follows: • 7-Methoxy-4-triFluoromethyl Coumarin-3-Acetic acid ethyl ester (FCA): 12.5 mM in acetonitrile • EthoxyResorufin (ER): 0.05 mM in acetonitrile • 4-MethylaminoMethyl-7-Methoxy Coumarin (MMC): 2.5 mM in methanol • 3-Butyryl-7Methoxy Coumarin (BMC): 2.5 mM in DMSO • 7-BenzyloxyQuinoline (7BQ): 2.5 mM in acetonitrile • DiEthoxyFluorescein (DEF): 0.1 mM in acetonitrile Bactosomes (Cypex source) at the concentration of 10 mg of protein per ml were diluted in phosphate buffer 50 mM pH7.4: • 0.33 ml of bactosomes CYP2C9 with 23.8 ml of buffer and 0.11 ml of FCA • 0.33 ml of bactosomes CYP1A2 with 23.6 ml of buffer and 0.275 ml of ER • 0.33 ml of bactosomes CYP2D6 with 23.8 ml of buffer and 0.11 ml of MMC • 0.33 ml of bactosomes CYP2C19 with 23.8 ml of buffer and 0.11 ml of BMC • 0.33 ml of bactosomes CYP3[…] with 23.6 ml of buffer and 0.275 ml of 7BQ • 0.33 ml of bactosomes CYP3[…] with 23.6 ml of buffer and 0.275 ml of DEF Pre-Incubation consisted in mixing 5 μl of compound solution with 220 μl diluted bactosomes and warming it at 37° C. for 10 min. Incubation was started with the addition of 25 μl of NADPH. […]

In series [2] the target is T2, CYP2C9 (Homo sapiens, UniProt P11712).
T2 construct: purchased Cypex; host or cells: bactosomes (bacterial membranes)
T2 sequence (P11712 whole entry): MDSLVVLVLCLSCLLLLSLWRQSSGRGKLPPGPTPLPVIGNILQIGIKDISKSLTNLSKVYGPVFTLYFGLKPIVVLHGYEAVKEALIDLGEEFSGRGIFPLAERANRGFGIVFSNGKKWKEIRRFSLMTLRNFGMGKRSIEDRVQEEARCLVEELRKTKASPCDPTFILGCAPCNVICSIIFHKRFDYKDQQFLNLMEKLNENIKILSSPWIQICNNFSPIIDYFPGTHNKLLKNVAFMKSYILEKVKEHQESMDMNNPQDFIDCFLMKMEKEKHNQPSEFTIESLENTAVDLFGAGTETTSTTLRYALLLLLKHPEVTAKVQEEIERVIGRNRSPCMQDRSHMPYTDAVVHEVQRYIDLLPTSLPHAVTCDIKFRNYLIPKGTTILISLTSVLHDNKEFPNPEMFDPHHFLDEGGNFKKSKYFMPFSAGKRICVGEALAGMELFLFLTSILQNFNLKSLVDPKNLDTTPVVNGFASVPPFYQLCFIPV
The series can be described thus: Cytochrome p450 inhibition assay (bactosomes, fluorogenic substrate FCA). In kind it is biochemical. Conditions: recombinant human CYP (Cypex bactosomes). As to the method:
as §1

The target of series [3] is T3, CYP3A4 (Homo sapiens, UniProt P08684).
T3 construct: purchased Cypex; host or cells: bactosomes (bacterial membranes)
T3 sequence (P08684 whole entry): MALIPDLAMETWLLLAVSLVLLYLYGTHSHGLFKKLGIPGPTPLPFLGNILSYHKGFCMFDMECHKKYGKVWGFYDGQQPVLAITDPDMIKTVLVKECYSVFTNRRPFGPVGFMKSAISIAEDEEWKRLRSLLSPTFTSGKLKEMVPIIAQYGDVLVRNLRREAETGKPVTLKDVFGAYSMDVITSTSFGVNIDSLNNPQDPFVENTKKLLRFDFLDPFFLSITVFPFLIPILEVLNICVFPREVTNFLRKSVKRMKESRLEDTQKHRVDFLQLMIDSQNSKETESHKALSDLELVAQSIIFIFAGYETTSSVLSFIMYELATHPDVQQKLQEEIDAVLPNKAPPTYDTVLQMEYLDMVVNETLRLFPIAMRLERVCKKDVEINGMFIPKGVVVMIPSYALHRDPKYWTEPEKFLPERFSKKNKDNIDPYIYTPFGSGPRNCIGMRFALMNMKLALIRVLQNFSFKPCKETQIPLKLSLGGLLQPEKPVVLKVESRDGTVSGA
The series can be described thus: Cytochrome p450 inhibition assay (bactosomes, fluorogenic substrates 7BQ and DEF). Type of series: biochemical. The following applies: recombinant human CYP (Cypex bactosomes). The method, then: The assay was designed to evaluate inhibition on cytochrome P450 (CYP) 3A4, 2C9, 2C19, 1A2 and 2D6 enzymes from bactosomes source using fluorogenic substrates. Compound (compound of Formula (I) or Comparator Compound) was dissolved in methanol at 1.65 mM. Daughter solutions were prepared in methanol at 660, 264, 106, 42, 17, 6.8, 2.7, 1.1 and 0.43 μM. NADPH cofactor was prepared with Glucose-6-phosphate (7.8 mg), Glucose-6-phosphate dehydrogenase (6 units), NADP (1.7 mg) per 1 mL in NaHCO3 2%. Substrate preparation was as follows: • 7-Methoxy-4-triFluoromethyl Coumarin-3-Acetic acid ethyl ester (FCA): 12.5 mM in acetonitrile • EthoxyResorufin (ER): 0.05 mM in acetonitrile • 4-MethylaminoMethyl-7-Methoxy Coumarin (MMC): 2.5 mM in methanol • 3-Butyryl-7Methoxy Coumarin (BMC): 2.5 mM in DMSO • 7-BenzyloxyQuinoline (7BQ): 2.5 mM in acetonitrile • DiEthoxyFluorescein (DEF): 0.1 mM in acetonitrile Bactosomes (Cypex source) at the concentration of 10 mg of protein per ml were diluted in phosphate buffer 50 mM pH7.4: • 0.33 ml of bactosomes CYP2C9 with 23.8 ml of buffer and 0.11 ml of FCA • 0.33 ml of bactosomes CYP1A2 with 23.6 ml of buffer and 0.275 ml of ER • 0.33 ml of bactosomes CYP2D6 with 23.8 ml of buffer and 0.11 ml of MMC • 0.33 ml of bactosomes CYP2C19 with 23.8 ml of buffer and 0.11 ml of BMC • 0.33 ml of bactosomes CYP3[…] with 23.6 ml of buffer and 0.275 ml of 7BQ • 0.33 ml of bactosomes CYP3[…] with 23.6 ml of buffer and 0.275 ml of DEF Pre-Incubation consisted in mixing 5 μl of compound solution with 220 μl diluted bactosomes and warming it at 37° C. for 10 min. Incubation was started with the addition of 25 μl of NADPH. Then fluorescence of substrate metabolite was read in a SAFIRE instrument (from Tecan) for 5 min: • FCA (2C9): Excitation at 410 nm and Emission at 510 nm • ER (1A2): Excitation at 530 nm and Emission at 590 nm • MMC (2D6): Excitation at 410 nm and Emission at 485 nm • BMC (2C19): Excitation at 410 nm and Emission at 465 nm • 7BQ (3A4H): Excitation at 410 nm and Emission at 530 nm • DEF (3A4L): Excitation at 485 nm and Emission at 530 nm Plotting of inhibition of substrate production against compound concentration allowed the determination of IC50 values.

A short description of series [4]: Physical stability (hydrolysis) in phosphate buffer at various pHs. In kind it is physicochemical. Conditions: acidic environment (pH less than 7.0), room temperature. The method, then: The assay was designed for determining physical stability of compound in buffer at various pHs. Compound of Formula (I) was dissolved in DMSO at 1 mg/ml. Phosphate buffer (PBS) was prepared by mixing K2HPO4 50 mM and KH2PO4 50 mM solutions to obtain 4 buffers at pH 6.0, 7.0, 7.5, 8.0.
Stability studies were conducted at room temperature, and were started by the addition of 8 μl of DMSO solution to 792 μl of PBS 50 mM at pH 6.0, 7.0, 7.5 or 8.0 (1% DMSO). 75 μl of mixture was taken at 0, 1, 2, 4 and 24 h and 225 μl acetonitrile containing internal standard was added.
2 μl of samples were injected into the liquid chromatography system and eluted with a Ascentis C18 column (50×2.1 mm id, 2.7 μm) and with 0.1% formic acid in water (A) and 0.1% formic acid in acetonitrile (B), using the following elution 2 min gradient: 5 to 95% B over 1.2 min, 95% B over 0.6 min and 0.1 min for re-equilibrate column, at 0.5 mL/min at 50° C.
Samples were analysed by Mass Spectrometry with an electrospray source and in positive mode and with following mass transitions: • Compound of Formula (I): 657 to 384 • Monoester of CPHPC: 499 to 226 • CPHPC: 341 to 226

Series [5] can be described thus: Liver microsomal stability. Type of series: in vitro ADME. As to the method:
(§2) The assay was designed for determining stability of compound in microsomal matrix. Compound (Compound of Formula (I)) was dissolved in DMSO at 1 mg/ml. Daughter solution was prepared in methanol/water (50/50) at 30.3 ng/ml. Microsomes (from Xenotech) were diluted at 0.625 mg proteins per ml in phosphate buffer 50 mM pH 7.4.
Pre-Incubation consisted of warming microsomal solution 395 μl with 100 μl NaHCO3 (2%) at 37° C. for 7 min. Incubation was started with the addition of 5 μl of daughter solution. 50 μl aliquots of mixture were taken at 0, 3, 6, 12 and 30 min and quenched with 150 μl acetonitrile containing internal standard.
(§3) After 10 min centrifugation at 4000 rpm, 2 μl of samples were injected into the liquid chromatography system and eluted on a Ascentis C18 column (50×2.1 mm id, 2.7 μm) with 0.1% formic acid in water (A) and 0.1% formic acid in acetonitrile (B), using the following 2 minute elution gradient: 5 to 95% B over 1.2 min, 95% B over 0.6 min and 0.1 min for re-equilibrate column, at 0.5 mL/min at 50° C.
Samples were analysed by Mass Spectrometry with an electrospray source, in positive mode and with following mass transitions: • Compound of Formula (I): 657 to 384 • Monoester of CPHPC: 499 to 226 • CPHPC: 341 to 226 […]
In vitro liver microsomal activity of was assessed using the protocol detailed above (Intestine and Liver Microsomal Assay protocol).

Series [6] in a line: Intestinal microsomal stability. Type of series: in vitro ADME. Conditions: 37° C., even after 60 minutes. As to the method: as §2
Pre-Incubation consisted of warming microsomal solution 395 μl with 100 μl NaHCO3 (2%) at 37° C. for 7 min. Incubation was started with the addition of 5 μl of daughter solution. […]
as §3
Samples were analysed by Mass Spectrometry with an electrospray source, in positive mode and with following mass transitions: • Compound of Formula (I): 657 to 384 • Monoester of CPHPC: 499 to 226 • CPHPC: 341 to 226
Controls were made to calculate percentage of disappearance of parent but also appearance of suspected metabolite, i.e. monoester and diacidic form.

The target in series [7] is T4, CYP2C19 (Homo sapiens, UniProt P33261).
T4 construct: purchased Cypex; host or cells: bactosomes (bacterial membranes)
T4 sequence (P33261 whole entry): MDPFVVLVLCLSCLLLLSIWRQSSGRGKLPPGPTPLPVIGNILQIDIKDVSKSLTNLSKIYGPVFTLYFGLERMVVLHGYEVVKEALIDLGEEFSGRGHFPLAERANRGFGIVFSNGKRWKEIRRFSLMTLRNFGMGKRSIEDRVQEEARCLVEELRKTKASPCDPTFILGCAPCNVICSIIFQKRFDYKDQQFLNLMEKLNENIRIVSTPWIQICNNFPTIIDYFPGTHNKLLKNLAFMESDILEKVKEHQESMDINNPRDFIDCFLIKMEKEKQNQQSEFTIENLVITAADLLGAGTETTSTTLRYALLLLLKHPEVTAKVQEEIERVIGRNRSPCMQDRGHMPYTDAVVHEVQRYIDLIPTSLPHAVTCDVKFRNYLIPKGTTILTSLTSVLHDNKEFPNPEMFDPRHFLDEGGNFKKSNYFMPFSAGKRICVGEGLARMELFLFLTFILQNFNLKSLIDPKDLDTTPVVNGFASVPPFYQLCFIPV
Put plainly: Cytochrome p450 inhibition assay (bactosomes, fluorogenic substrate BMC). Type of series: biochemical. Conditions: recombinant human CYP (Cypex bactosomes). As to the method: as §1

In series [8] the target is T5, CYP2D6 (Homo sapiens, UniProt P10635).
T5 construct: purchased Cypex; host or cells: bactosomes (bacterial membranes)
T5 sequence (P10635 whole entry): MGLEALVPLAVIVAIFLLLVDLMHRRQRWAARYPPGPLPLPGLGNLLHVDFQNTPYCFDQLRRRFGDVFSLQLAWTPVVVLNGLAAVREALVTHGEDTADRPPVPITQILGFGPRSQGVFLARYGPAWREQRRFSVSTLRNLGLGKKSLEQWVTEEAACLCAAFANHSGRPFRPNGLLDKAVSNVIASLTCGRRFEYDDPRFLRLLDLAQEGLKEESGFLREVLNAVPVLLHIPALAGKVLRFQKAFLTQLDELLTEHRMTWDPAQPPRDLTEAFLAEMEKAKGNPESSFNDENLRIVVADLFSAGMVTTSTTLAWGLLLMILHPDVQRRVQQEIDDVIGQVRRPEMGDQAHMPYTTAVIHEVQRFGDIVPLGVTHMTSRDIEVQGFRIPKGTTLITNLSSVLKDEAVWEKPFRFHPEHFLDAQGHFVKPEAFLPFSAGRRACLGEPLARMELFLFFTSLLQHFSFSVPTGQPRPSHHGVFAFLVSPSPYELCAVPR
Put plainly: Cytochrome p450 inhibition assay (bactosomes, fluorogenic substrate MMC). In kind it is biochemical. Conditions: recombinant human CYP (Cypex bactosomes). The method, then: as §1

Series [9] can be described thus: Solubility in aqueous media. Type of series: physicochemical. The following applies: for solubility at 4 h: thermodynamic from solid, read-out: Solubility at 4 hour timepoint. The method, then: A known quantity of the compound of Formula (I) was weighed into a suitable vessel (e.g. a screw capped clear glass vial) and a known volume of the required media added (e.g. Simulated Gastric Fluid pH 1.6[SGF], Simulated Fed State Intestinal Fluid pH 6.5 [FeSSIF], Simulated Fasted State Intestinal Fluid pH 6.5 [FaSSIF], Water [Purified Water], or Britton-Robinson buffer). The compound was wetted with the media by vortex mixing for 30 seconds to 1 minute. The sample was then visually observed to ensure that undissolved solid remained present. The sample was transferred to a gentle mixer (such as a roller mixer) and allowed to agitate until the desired time point was reached. At appropriate times the sample was reassessed visually. If all the solid had dissolved the solubility was recorded as >x mg/ml where x is the known weight used divided by the volume added. If undissolved solid remained a portion of the sample was taken and centrifuged to remove the solid leaving a clear supernatant. The supernatant was diluted volumetrically with a suitable diluent to provide an analytical sample of suitable concentration for analysis. This diluted sample was then analysed by a suitable method such as HPLC against a standard(s) of known concentration. The solubility of the compound can then be calculated using a knowledge of the concentration of the standard, the relative response (e.g. peak areas) of the standard and the analytical sample described, and the dilution of the analytical sample.

[10] abbreviates: substrate 7BQ, read-out: IC50 CYP3A4 (7BQ).
[11] abbreviates: substrate DEF, read-out: IC50 CYP3A4 (DEF).

What is called IC50 is the point on the concentration scale where inhibition reaches its midpoint. Usually solubility stands for the concentration that dissolves in the medium under given conditions. Consider `O=C(OCOC(=O)[C@H]1CCCN1C(=O)CCCCC(=O)N1CCC[C@@H]1C(=O)OCOC(=O)OC1CCOCC1)OC1CCOCC1` [Compound of Formula (I), (2R,2′R)-Bis(((((tetrahydro-2H-pyran-4-yl)oxy)carbonyl)oxy)methyl) 1,1′-adipoylbis(pyrrolidine-2-carboxylate)], for which the half-inhibitory concentration (IC50) in series [1], in series [2], in series [3] (setting [10]), in series [3] (setting [11]), in [7] and in series [8] was over 33 µM in each case. Besides, the “Compound hydrolysed after 24 h” value in [4] is on record as “Less than 20%”. In addition, the “Rate of hydrolysis to CPHPC in human liver microsomes” value in series [5] is reported as “high rate of hydrolysis”. The “Rate of hydrolysis in human intestinal microsomes” value in series [6] is “low rate of hydrolysis”. For the same compound, in [9] (biologically relevant media), the “Solubility in biologically relevant media” value is on record as “highly soluble”. For the same compound, the solubility at 4 h in series [9] (FaSSIF (Simulated Fasted State Intestinal Fluid pH 6.5)) is 4400 µg/mL; in [9] (FeSSIF (Simulated Fed State Intestinal Fluid pH 6.5)), 5000 µg/mL; in series [9] (SGF (Simulated Gastric Fluid pH 1.6)), 5200 µg/mL; in series [9] (water (purified water), Water) it was 5500 µg/mL.

With `O=C(OCOC(=O)[C@H]1CCCN1C(=O)CCCCC(=O)N1CCC[C@@H]1C(=O)O)OC1CCOCC1` [mono-ester derivative, (R)-1-(6-oxo-6-((R)-2-((((((tetrahydro-2H-pyran-4-yl)oxy)carbonyl)oxy)methoxy)carbonyl)pyrrolidin-1-yl)hexanoyl)pyrrolidine-2-carboxylic acid], the half-maximal inhibitory concentration (IC50) in series [1], in series [2], in series [3] (setting [10]), in series [3] (setting [11]), in series [7] and in series [8] was over 33 µM each time.

Values taken from US9737505B2, “Prodrug of 1,1′-(1,6-dioxo-1,6-hexanediyl)bis-D-proline” (GlaxoSmithKline Intellectual Property Development Limited, priority 2014, dated 2017).
